Measurements taken from patent publication US9796680B2, “Glucocerebrosidase modulators and uses thereof” (Alectos Therapeutics Inc., priority 2013, dated 2017).

What follows are compounds tested against GCase enzyme (Cerezyme, recombinant human GCase) (Homo sapiens, UniProt P04062, R534H).
Chain of GCase enzyme (Cerezyme, recombinant human GCase) (P04062 40-536 R534H limits assumed): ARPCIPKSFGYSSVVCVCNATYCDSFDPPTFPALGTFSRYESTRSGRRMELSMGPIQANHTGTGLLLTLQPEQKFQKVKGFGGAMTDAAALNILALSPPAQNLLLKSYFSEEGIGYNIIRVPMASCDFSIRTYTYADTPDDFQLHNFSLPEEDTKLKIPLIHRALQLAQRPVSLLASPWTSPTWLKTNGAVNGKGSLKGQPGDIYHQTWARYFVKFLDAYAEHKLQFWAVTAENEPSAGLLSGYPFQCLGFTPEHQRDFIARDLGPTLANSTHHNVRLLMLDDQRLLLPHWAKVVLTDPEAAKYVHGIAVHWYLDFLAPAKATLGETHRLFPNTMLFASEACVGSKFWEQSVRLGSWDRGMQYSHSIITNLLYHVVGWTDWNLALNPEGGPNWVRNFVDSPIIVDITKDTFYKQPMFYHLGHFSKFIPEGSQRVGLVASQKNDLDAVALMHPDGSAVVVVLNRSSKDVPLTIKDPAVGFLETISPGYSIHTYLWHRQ
Procedure: Assay for Determination of Ki Values for Inhibition of GCase Activity
Various concentrations of test compounds were prepared in DMSO and then diluted into buffer consisting of 50 mM sodium phosphate 0.25% w/v sodium taurodexoycholate, pH 7.0. […] The reaction solution consisted of 25 μL of 6 mM 4-methylumbelliferone-β-D glucopyranoside in 10% DMSO in the same buffer, 12.5 μL of enzyme and 12.5 μL of various concentrations of test compound diluted in buffer. […] The reaction was initiated by addition of enzyme and allowed to proceed for 20 min at 37° C. to assess GCase activity. […] IC50 values were determined by fitting the data to a log [inhibitor concentration] versus response curve using GraphPad Prism.
With `CCC#C[C@@H]1[C@@H](O)[C@H](O)CNC12CC2` [Example 22, (6R,7R,8S)-8-(but-1-yn-1-yl)-4-azaspiro[2.5]octane-6,7-diol] the IC50 was 2.4 nM.
Work on `OC[C@@H]1[C@@H](O)[C@H](O)CNC12CC2` [Example 2, (6R,7R,8R)-8-(hydroxymethyl)-4-azaspiro[2.5]octane-6,7-diol] yielded an IC50 of 13 nM and a Ki of 7 nM.
In the case of `O[C@H]1[C@H](O)CNC2(CC2)[C@@H]1CCF` [Example 14, (6R,7R,8S)-8-(2-fluoroethyl)-4-azaspiro[2.5]octane-6,7-diol], the IC50 is reported as 27 nM.
For `CC[C@@H]1[C@@H](O)[C@H](O)CNC12CC2` [Example 12, (6R,7R,8S)-8-ethyl-4-azaspiro[2.5]octane-6,7-diol], the IC50 was 6.3 nM.
With `O=C(NC1CC1)[C@@H]1[C@@H](O)[C@H](O)CNC12CC2` [Example 11, (6R,7R,8S)-N-cyclopropyl-6,7-dihydroxy-4-azaspiro[2.5]octane-8-carboxamide] the IC50 was 462 nM.
For `O[C@H]1[C@H](O)CNC2(CC2)[C@@H]1C(F)F` [Example 4, (6R,7R,8S)-8-(difluoromethyl)-4-azaspiro[2.5]octane-6,7-diol], the IC50 was 6.5 nM and the Ki was 8 nM.
`N#C[C@@H]1[C@@H](O)[C@H](O)CNC12CC2` [Example 8, (6R,7R,8R)-6,7-dihydroxy-4-azaspiro[2.5]octane-8-carbonitrile] was tested, and the IC50 was 75 nM.
`C=C[C@@H]1[C@@H](O)[C@H](O)CNC12CC2` [Example 16, (6R,7R,8S)-8-vinyl-4-azaspiro[2.5]octane-6,7-diol] gave an IC50 of 6.8 nM and a Ki of 7.6 nM.
`O[C@H]1[C@H](O)CNC2(CC2)[C@@H]1C#CCC(F)F` [Example 28, (6R,7R,8S)-8-(4,4-difluorobut-1-yn-1-yl)-4-azaspiro[2.5]octane-6,7-diol] gave an IC50 of 11 nM.
`CC1(C)NC[C@@H](O)[C@H](O)[C@H]1CO` [(3R,4R,5R)-5-(hydroxymethyl)-6,6-dimethylpiperidine-3,4-diol, reference compound] showed an IC50 of 3440 nM.
Work on `CCCC#C[C@@H]1[C@@H](O)[C@H](O)CNC12CC2` [Example 23, (6R,7R,8S)-8-(pent-1-yn-1-yl)-4-azaspiro[2.5]octane-6,7-diol] yielded an IC50 of 6.7 nM.
In the case of `O[C@H]1[C@H](O)CNC2(CC2)[C@@H]1CF` [Example 3, (6R,7R,8S)-8-(fluoromethyl)-4-azaspiro[2.5]octane-6,7-diol], the IC50 is reported as 6.2 nM and the Ki is reported as 2.1 nM.
Work on `O[C@H]1[C@H](O)CNC2(CC2)[C@@H]1C#CC(F)F` [Example 26, (6R,7R,8S)-8-(3,3-difluoroprop-1-yn-1-yl)-4-azaspiro[2.5]octane-6,7-diol] yielded an IC50 of 22 nM and a Ki of 17 nM.
Compound `O[C@H]1[C@H](O)CNC2(CC2)[C@@H]1/C=C\F` [Example 17, (6R,7R,8S)-8-((Z)-2-fluorovinyl)-4-azaspiro[2.5]octane-6,7-diol] has an IC50 of 36 nM.
`C[C@@H]1[C@@H](O)[C@H](O)CNC12CC2` [Example 1, (6R,7R,8S)-8-methyl-4-azaspiro[2.5]octane-6,7-diol] was tested, and the IC50 was 3.7 nM and the Ki was 2.6 nM.
Compound `O[C@H]1[C@H](O)CNC2(CC2)[C@@H]1CCl` [Example 5, (6R,7R,8S)-8-(chloromethyl)-4-azaspiro[2.5]octane-6,7-diol] has an IC50 of 7.4 nM.
`OCC#C[C@@H]1[C@@H](O)[C@H](O)CNC12CC2` [Example 24, (6R,7R,8S)-8-(3-hydroxyprop-1-yn-1-yl)-4-azaspiro[2.5]octane-6,7-diol] was tested, and the IC50 was 17 nM.
Compound `O=C(O)[C@@H]1[C@@H](O)[C@H](O)CNC12CC2` [Example 9, (6R,7R,8S)-6,7-dihydroxy-4-azaspiro[2.5]octane-8-carboxylic acid] has an IC50 of 507 nM.
`O[C@H]1[C@H](O)CNC2(CC2)[C@@H]1/C=C/F` [Example 18, (6R,7R,8S)-8-((E)-2-fluorovinyl)-4-azaspiro[2.5]octane-6,7-diol] gave an IC50 of 20 nM.
Compound `O[C@H]1[C@H](O)CNC2(CC2)[C@@H]1C#CCCF` [Example 27, (6R,7R,8S)-8-(4-fluorobut-1-yn-1-yl)-4-azaspiro[2.5]octane-6,7-diol] has an IC50 of 2.5 nM.
Compound `CC#C[C@@H]1[C@@H](O)[C@H](O)CNC12CC2` [Example 21, (6R,7R,8S)-8-(prop-1-yn-1-yl)-4-azaspiro[2.5]octane-6,7-diol] has an IC50 of 9.7 nM and a Ki of 6.7 nM.
Work on `O[C@H]1[C@H](O)CNC2(CC2)[C@@H]1C#CCF` [Example 25, (6R,7R,8S)-8-(3-fluoroprop-1-yn-1-yl)-4-azaspiro[2.5]octane-6,7-diol] yielded an IC50 of 16 nM and a Ki of 15 nM.
Compound `COC[C@@H]1[C@@H](O)[C@H](O)CNC12CC2` [Example 6, (6R,7R,8R)-8-(methoxymethyl)-4-azaspiro[2.5]octane-6,7-diol] has an IC50 of 7.5 nM.
Work on `C#C[C@@H]1[C@@H](O)[C@H](O)CNC12CC2` [Example 20, (6R,7R,8S)-8-ethynyl-4-azaspiro[2.5]octane-6,7-diol] yielded an IC50 of 13 nM and a Ki of 7.9 nM.
For `CNC(=O)[C@@H]1[C@@H](O)[C@H](O)CNC12CC2` [Example 10, (6R,7R,8S)-6,7-dihydroxy-N-methyl-4-azaspiro[2.5]octane-8-carboxamide], the IC50 was 264 nM.
Compound `O[C@H]1[C@H](O)CNC2(CC2)[C@@H]1C=C(F)F` [Example 19, (6R,7R,8S)-8-(2,2-difluorovinyl)-4-azaspiro[2.5]octane-6,7-diol] has an IC50 of 75 nM.
`CO[C@@H]1[C@@H](O)[C@H](O)CNC12CC2` [Example 7, (6R,7S,8S)-8-methoxy-4-azaspiro[2.5]octane-6,7-diol] gave an IC50 of 32 nM.
Compound `CCC[C@@H]1[C@@H](O)[C@H](O)CNC12CC2` [Example 13, (6R,7R,8S)-8-propyl-4-azaspiro[2.5]octane-6,7-diol] has an IC50 of 15 nM.
